Test in all cases: biochemical
The target of assay [1] is DR1 (DRB1*0101) (Homo sapiens, UniProt P01903+P01911, A100R/D57E/F55L/F60I/F76Y/I96L/L162R/M171V/P40L/Q125E/R42F/V115G/Y59C). The format is binding.
Assay [2] addresses DR4w4 (DRB1*0401) (Homo sapiens, UniProt P01903+P01911, A100K/A169T/F76Y/I96L/K127E/L162R/M171V/N62H/P40V/Q125Y/R42H/S133A/S149N/S66Y/V115G/V209L/W38E). The format is binding.
The target of assay [3] is DR7 (DRB1*0701) (Homo sapiens, UniProt P01903+P01911, A100R/A102G/A103Q/D57E/D86V/E43K/F76Y/K127E/L162R/M171V/P40G/Q125H/Q99D/R33Q/R42Y/R54Q/S133A/S66F/T210M/V115G/Y107V/Y59L/Y89S). The format is binding.
For assay [4], the target named is DRB1*0301 (Homo sapiens, UniProt P01903+P01911, A100K/A102G/A103R/A169T/F55Y/I96L/K41T/L162R/M171V/P40S/Q125H/Q178H/Q39Y/R42S/S66N/T106N/T262R/W38E/Y61H). The format is binding.
DRB1*0301, sequence (P01903 26-254 limits assumed, other chains not shown): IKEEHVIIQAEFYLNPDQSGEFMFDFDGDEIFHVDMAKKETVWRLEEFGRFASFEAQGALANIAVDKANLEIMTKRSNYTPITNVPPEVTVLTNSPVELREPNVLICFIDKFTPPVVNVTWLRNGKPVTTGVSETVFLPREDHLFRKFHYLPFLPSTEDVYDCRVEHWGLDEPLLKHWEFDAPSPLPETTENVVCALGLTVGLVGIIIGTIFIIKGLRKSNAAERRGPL
Assay [5] deals with DRB1*0405 (Homo sapiens, UniProt P01903+P01911, A100R/A169T/D86S/F76Y/I96L/K127E/L162R/M171V/N62H/P40V/Q125Y/R42H/S133A/S149N/S66Y/V115G/V209L/W38E). The class given is binding.
In assay [6] the target is DRB1*0802 (Homo sapiens, UniProt P01903+P01911, A100R/A103L/A169T/F76Y/H45Y/I96F/K41T/L162R/M171V/P40S/Q125H/Q178H/Q39Y/Q99D/R218S/R42G/S66Y/V115G/W38E). The format is binding.
The target in assay [7] is DRB1*0901 (Homo sapiens, UniProt P01903+P01911, A100R/A103E/D57H/D86V/F55Y/F60I/F76Y/I96F/K127E/L162R/M171V/P40D/Q125H/Q99R/R33Q/R42F/S133A/S66N/T210M/V115G/W38K/Y107V/Y59G/Y89S). The class given is binding.
Assay [8] has as its target DRB1*1201 (Homo sapiens, UniProt P01903+P01911, A100R/A169T/D57E/D86V/F55L/H45Y/K41T/L162R/M171V/P40S/Q125H/Q178H/Q39Y/Q99D/R42G/S66L/T262R/V114A/V67L/W38E/Y59H/Y61H/Y89S). The class given is binding.
Assay [9] has as its target DRB1*1302 (Homo sapiens, UniProt P01903+P01911, A100E/A169T/K41T/L162R/M171V/P40S/Q125H/Q178H/Q39Y/Q99D/R42S/S66N/T262R/V115G/W38E/Y61H). The format is binding.
The target in assay [10] is DRB1*1501 (Homo sapiens, UniProt P01903+P01911). The format is binding.
The target in assay [11] is DRB4*0101 (Homo sapiens, UniProt P01903+P13762, G164S). The class given is binding.
The target in assay [12] is DRB5*0101 (Homo sapiens, UniProt P01903+Q30154). The following applies: Binding affinity DRB5 *0101.
The target in assay [13] is DRB1*1101 (Homo sapiens, UniProt P01903+P01911, A100R/A169T/A87E/I96F/K41T/L162R/M171V/P40S/Q125H/Q178H/Q39Y/Q99D/R42S/S66Y/T262R/V115G/W38E). The following applies: Binding affinity DRB1 *1101.
DRB1*1101, sequence (P01903 26-254 limits assumed, other chains not shown): as above

One may read the IC50 as the midpoint of a concentration-inhibition curve. A lower IC50 goes with greater potency.

No end group written: not given here.

DRB1*1302, sequence (P01903 26-254 limits assumed, other chains not shown): as above

Consider `CC[C@H](C)[C@H](NC(=O)[C@H](Cc1c[nH]c2ccccc12)NC(=O)[C@H](CCC(=O)O)NC(=O)[C@@H]1CCCN1)C(=O)N[C@@H](CCC(N)=O)C(=O)N[C@@H](CCCNC(=N)N)C(=O)N[C@@H](CCC(N)=O)C(=O)N[C@H](C(=O)N[C@H](C(=O)N[C@@H](CC(C)C)C(=O)N[C@@H](CCC(N)=O)C(=O)N[C@@H](Cc1c[nH]cn1)C(=O)N[C@@H](CO)C(=O)N[C@@H](Cc1ccccc1)C(=O)N[C@@H](CC(N)=O)C(=O)O)C(C)C)[C@@H](C)O` [Peptide 89.0011], for which the IC50 in assay [1] turned out to be 2260 nM; in [2] it was 18 nM; in assay [3], 6120 nM; in assay [4], 155 nM; in assay [5], 259 nM; in assay [6] it was 213 nM. Moreover, the concentration for half-maximal inhibition (IC50) in assay [7] is 6180 nM; in [8] it was 4020 nM; in assay [9] it was 473 nM; in assay [10], 8860 nM; in [11] it was 4.5 nM; in assay [12] it was 11800 nM.
On to CMLIQPPKLRSTAAA [Peptide 89.0047], for which the IC50 in assay [2] was 2380 nM; in assay [3] it was 470 nM; in assay [4], 5760 nM; in [5], greater than 20000 nM; in assay [6], 2650 nM; in [7] it was 7540 nM. Besides, the concentration for half-maximal inhibition (IC50) in assay [8] was determined as 3690 nM; in assay [9] it was 3610 nM; in assay [10], 2640 nM; in assay [11] it was 567 nM; in assay [13], 982 nM; in assay [12], 904 nM.
Consider CQAIELQLALEALNK [Peptide 90.0014], for which the IC50 in assay [1] was 25 nM; in [2], 450 nM; in assay [3], greater than 20000 nM; in assay [4], 466 nM; in assay [5] it was 1520 nM; in assay [6] it was 3590 nM. Also, the IC50 in assay [7] was 1780 nM; in assay [8], 1100 nM; in assay [9] it was 214 nM; in [10], 200 nM; in [11], 14 nM; in assay [13], 3230 nM. In assay [12], this compound gave a 50% inhibitory concentration (IC50) of 1910 nM.
On to DWCVAAFGVTGTVAE [Peptide 89.0042], for which the IC50 in assay [1] was 11 nM; in [2], 294 nM; in [3], 349 nM; in [4], greater than 20000 nM; in assay [5], 184 nM; in [6], 3500 nM. The half-maximal inhibitory concentration (IC50) in [7] was 901 nM; in assay [8] it was greater than 20000 nM; in assay [9], greater than 20000 nM; in assay [10], 64 nM; in [11], 601 nM; in assay [13] it was 3230 nM. Moreover, in [12], the half-maximal inhibitory concentration (IC50) is 8660 nM.
Regarding DWVMAIFGVNPTVAE [Peptide 89.0079], the IC50 amounted to 58 nM in [1]; 45 nM in [2]; 108 nM in assay [3]; 431 nM in assay [4]; 85 nM in assay [5]; 6720 nM in [6]. Besides, the IC50 in assay [7] is 1620 nM; in [8], 430 nM; in assay [9], 60 nM; in [10], 26 nM; in [11] it was 6.5 nM; in [13], 1820 nM.
Turning to DYVLDLQPEATDLHC [Peptide 1543.10], the IC50 is 5050 nM in assay [1]; 35 nM in assay [2]; greater than 20000 nM in assay [3]; 11000 nM in [4]; 678 nM in [5]; greater than 20000 nM in [6]. In addition, the IC50 in assay [7] was greater than 20000 nM; in assay [8] it was 4880 nM; in assay [9] it was greater than 20000 nM; in assay [10] it was greater than 20000 nM; in assay [11], 69 nM; in [13], greater than 20000 nM. This compound yielded an IC50 in assay [12] greater than 20000 nM.
On to ETCMVIEPPKLRSQT [Peptide 90.0083], for which the IC50 in [1] is 26 nM; in assay [2], 1550 nM; in assay [3] it was 794 nM; in assay [4], 275 nM; in assay [5], 2280 nM; in [6] it was 4300 nM. Further, the IC50 in assay [7] is greater than 20000 nM; in assay [8], 825 nM; in assay [9], greater than 20000 nM; in assay [10] it was 670 nM; in assay [11], 16 nM; in [13], 4740 nM. Besides, in assay [12], the concentration for half-maximal inhibition (IC50) turned out to be 124 nM.
Regarding EVHMENESIYCPDSV [Peptide 90.0238], the 50% inhibitory concentration (IC50) in assay [1] is 634 nM; in [2], 5250 nM; in assay [3], greater than 20000 nM; in [4], 410 nM; in [5] it was greater than 20000 nM; in [6], greater than 20000 nM. Further, the IC50 in [7] was greater than 20000 nM; in [8], greater than 20000 nM; in assay [9], 2370 nM; in assay [10] it was 516 nM; in assay [11], greater than 20000 nM; in assay [13], greater than 20000 nM. The compound further showed a half-inhibitory concentration (IC50) in assay [12] greater than 20000 nM.
On to FKKFLKGIPKKSCML [Peptide 89.0073], for which the IC50 was 20 nM in assay [1]; 452 nM in [2]; 2090 nM in [3]; greater than 20000 nM in assay [4]; 17500 nM in [5]; 320 nM in assay [6]. Also, the 50% inhibitory concentration (IC50) in assay [7] is 2480 nM; in [8], 709 nM; in assay [9], 2660 nM; in assay [10], 508 nM; in assay [11], 2220 nM; in assay [13] it was 64 nM. In assay [12], the concentration for half-maximal inhibition (IC50) was determined as 66 nM.
Consider FQVIELQMALETLNA [Peptide 90.0025], for which the IC50 in assay [1] is 20 nM; in assay [2] it was 75 nM; in assay [3], 2650 nM; in assay [4] it was 743 nM; in [5], 2490 nM; in assay [6], greater than 20000 nM. Also, the half-inhibitory concentration (IC50) in assay [7] amounted to 1970 nM; in assay [8], 708 nM; in assay [9], 187 nM; in [10], 449 nM; in [11], 15 nM; in assay [13], 3990 nM. This compound gave a half-inhibitory concentration (IC50) in [12] greater than 20000 nM.
IVHLKGDPNSLKCLR [Peptide 90.0255]: the concentration for half-maximal inhibition (IC50) in assay [1] is 229 nM; in assay [2], 83 nM; in assay [3], greater than 20000 nM; in [4], 42 nM; in assay [5], greater than 20000 nM; in assay [6], 2210 nM. In addition, the IC50 was greater than 20000 nM in assay [7]; 4650 nM in [8]; 574 nM in assay [9]; 7830 nM in assay [10]; 1590 nM in assay [11]; 2560 nM in [12].
For the compound RGIIILLLIRFRCSK [Peptide 89.0063], the IC50 is 674 nM in [1]; 883 nM in [2]; 721 nM in [3]; greater than 20000 nM in [4]; 241 nM in assay [5]; 6420 nM in assay [6]. The concentration for half-maximal inhibition (IC50) in [7] was greater than 20000 nM; in assay [8] it was 2010 nM; in assay [9] it was 352 nM; in assay [10] it was 431 nM; in assay [11], 283 nM; in [12], greater than 20000 nM.
Regarding VDFIDTQLSICEQAE [Peptide 89.0078], the IC50 in assay [2] amounted to 1280 nM; in assay [3] it was 426 nM; in assay [4], 3780 nM; in assay [5], 284 nM; in assay [6] it was 7430 nM; in [7] it was 6000 nM. The half-maximal inhibitory concentration (IC50) in assay [8] was determined as 2020 nM; in assay [9] it was 1550 nM; in assay [10] it was 609 nM; in assay [11], 471 nM; in assay [13] it was 3920 nM; in assay [12], 1520 nM.

For the origin of these results see US9340577B2, “HLA binding motifs and peptides and their uses” (priority 1992, dated 2016).
